# According to ChEMBL document CHEMBL4715829, “Heterodimeric Rifampicin-Tobramycin conjugates break intrinsic resistance of Pseudomonas aeruginosa to doxycycline and chloramphenicol in vitro and in a Galleria mellonella in vivo model” (Eur J Med Chem, 2019):
# Tests used:
# Assay type in all cases: functional
# [1] = test system: Pseudomonas aeruginosa; experiment: Antibacterial activity against Pseudomonas aeruginosa 262-101856 assessed as reduction in bacterial growth by measuring doxycycline MIC at 8 ug/ml incubated for 18 hrs in presence of doxycycline by broth microdilution assay (reference value: 1024 ug/ml); conditions: dose 8 µg/ml
# [2] = test system: Pseudomonas aeruginosa; experiment: Antibacterial activity against Pseudomonas aeruginosa 101243 assessed as potentiation of doxycycline-induced antibacterial activity by measuring doxycycline MIC at 9.8 uM incubated for 18 hrs in presence of doxycycline by broth microdilution assay (reference value: 4 ug/ml)
# [3] = test system: Pseudomonas aeruginosa; experiment: Antibacterial activity against Pseudomonas aeruginosa 260-97103 assessed as potentiation of chloramphenicol-induced antibacterial activity by measuring chloramphenicol MIC at 9.8 uM incubated for 18 hrs in presence of chloramphenicol by broth microdilution assay (reference value: 128 ug/ml)
# [4] = test system: Pseudomonas aeruginosa; experiment: Antibacterial activity against Pseudomonas aeruginosa 91433 assessed as potentiation of doxycycline-induced antibacterial activity by measuring doxycycline MIC at 9.8 uM incubated for 18 hrs in presence of doxycycline by broth microdilution assay (reference value: 32 ug/ml)
# [5] = test system: Pseudomonas aeruginosa; experiment: Antibacterial activity against Pseudomonas aeruginosa 100036 assessed as fractional inhibitory concentration incubated for 18 hrs in presence of tigecycline by broth microdilution assay
# [6] = test system: Pseudomonas aeruginosa; experiment: Antibacterial activity against Pseudomonas aeruginosa 100036 assessed as fractional inhibitory concentration incubated for 18 hrs in presence of minocycline by broth microdilution assay
# [7] = test system: Pseudomonas aeruginosa; experiment: Antibacterial activity against Pseudomonas aeruginosa 260-97103 assessed as fractional inhibitory concentration incubated for 18 hrs in presence of minocycline by broth microdilution assay
# [8] = test system: Pseudomonas aeruginosa; experiment: Antibacterial activity against Pseudomonas aeruginosa 101885 assessed as fractional inhibitory concentration index incubated for 18 hrs in presence of minocycline by broth microdilution assay
# [9] = test system: Pseudomonas aeruginosa; experiment: Antibacterial activity against Pseudomonas aeruginosa 101885 assessed as fractional inhibitory concentration index incubated for 18 hrs in presence of rifampicin by broth microdilution assay
# [10] = test system: Pseudomonas aeruginosa; experiment: Antibacterial activity against Pseudomonas aeruginosa 260-97103 assessed as fractional inhibitory concentration index incubated for 18 hrs in presence of tigecycline by broth microdilution assay
# [11] = test system: Pseudomonas aeruginosa; experiment: Antibacterial activity against Pseudomonas aeruginosa 260-97103 assessed as fractional inhibitory concentration index incubated for 18 hrs in presence of rifampicin by broth microdilution assay
# [12] = test system: Pseudomonas aeruginosa; experiment: Antibacterial activity against Pseudomonas aeruginosa 91433 assessed as fractional inhibitory concentration index incubated for 18 hrs in presence of minocycline by broth microdilution assay
# [13] = test system: Pseudomonas aeruginosa; experiment: Antibacterial activity against Pseudomonas aeruginosa 101243 assessed as fractional inhibitory concentration index incubated for 18 hrs in presence of minocycline by broth microdilution assay
# [14] = test system: Pseudomonas aeruginosa; experiment: Antibacterial activity against Pseudomonas aeruginosa 114228 assessed as fractional inhibitory concentration index incubated for 18 hrs in presence of minocycline by broth microdilution assay
# [15] = test system: Pseudomonas aeruginosa; experiment: Antibacterial activity against Pseudomonas aeruginosa 260-97103 infected in Galleria mellonella larvae assessed as mortality of larvae at 100 mg/kg administered at 3 hrs post-infection and measured every 6 hrs for 36 hrs
# [16] = test system: Pseudomonas aeruginosa; experiment: Potentiation of chloramphenicol-induced antibacterial activity against Pseudomonas aeruginosa 264-101354 assessed as fold change in chloramphenicol MIC at 9.8 uM incubated for 18 hrs in presence of chloramphenicol by broth microdilution assay relative to control
# [17] = test system: Pseudomonas aeruginosa; experiment: Potentiation of chloramphenicol-induced antibacterial activity against Pseudomonas aeruginosa 262-101856 assessed as fold change in chloramphenicol MIC at 9.8 uM incubated for 18 hrs in presence of chloramphenicol by broth microdilution assay relative to control
# [18] = test system: Pseudomonas aeruginosa; experiment: Potentiation of chloramphenicol-induced antibacterial activity against Pseudomonas aeruginosa 259-96918 assessed as fold change in chloramphenicol MIC at 9.8 uM incubated for 18 hrs in presence of chloramphenicol by broth microdilution assay relative to control
# [19] = test system: Pseudomonas aeruginosa; experiment: Potentiation of chloramphenicol-induced antibacterial activity against Pseudomonas aeruginosa 260-97103 assessed as fold change in chloramphenicol MIC at 9.8 uM incubated for 18 hrs in presence of chloramphenicol by broth microdilution assay relative to control
# [20] = test system: Enterobacter cloacae; experiment: Potentiation of doxycycline-induced antibacterial activity against Enterobacter cloacae ATCC 117029 assessed as fold change in doxycycline MIC at 9.8 uM incubated for 18 hrs in presence of doxycycline by broth microdilution assay relative to control
# [21] = test system: Pseudomonas aeruginosa; experiment: Antibacterial activity against Pseudomonas aeruginosa 101243 assessed as potentiation of doxycycline-induced antibacterial activity by measuring doxycycline MIC at 7.6 uM incubated for 18 hrs in presence of doxycycline by broth microdilution assay (reference value: 4 ug/ml)
# [22] = test system: Pseudomonas aeruginosa; experiment: Antibacterial activity against Pseudomonas aeruginosa 262-101856 assessed as potentiation of chloramphenicol-induced antibacterial activity by measuring chloramphenicol MIC at 7.6 uM incubated for 18 hrs in presence of chloramphenicol by broth microdilution assay (reference value: 2048 ug/ml)
# [23] = test system: Pseudomonas aeruginosa; experiment: Antibacterial activity against Pseudomonas aeruginosa 91433 assessed as potentiation of doxycycline-induced antibacterial activity by measuring doxycycline MIC at 7.6 uM incubated for 18 hrs in presence of doxycycline by broth microdilution assay (reference value: 32 ug/ml)
# [24] = test system: Pseudomonas aeruginosa; experiment: Antibacterial activity against Pseudomonas aeruginosa 91433 assessed as potentiation of chloramphenicol-induced antibacterial activity by measuring chloramphenicol MIC at 7.6 uM incubated for 18 hrs in presence of chloramphenicol by broth microdilution assay (reference value: 8 ug/ml)
# [25] = test system: Pseudomonas aeruginosa; experiment: Potentiation of doxycycline-induced antibacterial activity against Pseudomonas aeruginosa 100036 assessed as fold change in doxycycline MIC at 7.6 uM incubated for 18 hrs in presence of doxycycline by broth microdilution assay relative to control
# [26] = test system: Pseudomonas aeruginosa; experiment: Potentiation of doxycycline-induced antibacterial activity against Pseudomonas aeruginosa 101243 assessed as fold change in doxycycline MIC at 7.6 uM incubated for 18 hrs in presence of doxycycline by broth microdilution assay relative to control
# [27] = test system: Pseudomonas aeruginosa; experiment: Potentiation of doxycycline-induced antibacterial activity against Pseudomonas aeruginosa 101885 assessed as fold change in doxycycline MIC at 7.6 uM incubated for 18 hrs in presence of doxycycline by broth microdilution assay relative to control
# [28] = test system: Pseudomonas aeruginosa; experiment: Potentiation of doxycycline-induced antibacterial activity against Pseudomonas aeruginosa 259-96918 assessed as fold change in doxycycline MIC at 7.6 uM incubated for 18 hrs in presence of doxycycline by broth microdilution assay relative to control
# [29] = test system: Pseudomonas aeruginosa; experiment: Potentiation of doxycycline-induced antibacterial activity against Pseudomonas aeruginosa 260-97103 assessed as fold change in doxycycline MIC at 7.6 uM incubated for 18 hrs in presence of doxycycline by broth microdilution assay relative to control
# [30] = test system: Pseudomonas aeruginosa; experiment: Potentiation of chloramphenicol-induced antibacterial activity against Pseudomonas aeruginosa 101885 assessed as fold change in chloramphenicol MIC at 7.6 uM incubated for 18 hrs in presence of chloramphenicol by broth microdilution assay relative to control
# [31] = test system: Pseudomonas aeruginosa; experiment: Potentiation of chloramphenicol-induced antibacterial activity against Pseudomonas aeruginosa 114228 assessed as fold change in chloramphenicol MIC at 7.6 uM incubated for 18 hrs in presence of chloramphenicol by broth microdilution assay relative to control
structure (smiles),measurement,setting,value
NC[C@H]1O[C@H](O[C@H]2[C@H](O)[C@@H](O[C@H]3O[C@H](CO)[C@@H](O)[C@H](N)[C@H]3O)[C@H](N)C[C@@H]2N)[C@H](N)C[C@@H]1O [TOBRAMYCIN],MIC,[1],1020 µg/mL
CO[C@H]1/C=C/O[C@@]2(C)Oc3c(C)c(O)c4c(O)c(c(/C=N/N5CCN(Cc6cn(CCCCCCO[C@@H]7[C@@H](O[C@H]8O[C@H](CO)[C@@H](O)[C@H](N)[C@H]8O)[C@H](N)C[C@H](N)[C@H]7O[C@H]7O[C@H](CN)[C@@H](O)C[C@H]7N)nn6)CC5)c(O)c4c3C2=O)NC(=O)/C(C)=C\C=C\[C@H](C)[C@H](O)[C@@H](C)[C@@H](O)[C@@H](C)[C@H](OC(C)=O)[C@@H]1C.Cl.Cl.Cl.Cl.Cl,MIC,[2],0.25 µg/mL
same,MIC,[3],2 µg/mL
same,MIC,[4],4 µg/mL
same,FIC,[5],0.004
same,FIC,[6],0.063
same,FIC,[7],<0.125
same,fractional inhibitory concentration index (FICI),[8],0.13
same,fractional inhibitory concentration index (FICI),[9],0.08
same,fractional inhibitory concentration index (FICI),[10],<0.16
same,fractional inhibitory concentration index (FICI),[11],<0.16
same,fractional inhibitory concentration index (FICI),[12],<0.25
same,fractional inhibitory concentration index (FICI),[13],<0.31
same,fractional inhibitory concentration index (FICI),[14],<0.28
same,mortality at 100 mg/kg,[15],100%
same,fold change (FC),[16],4
same,fold change (FC),[17],4
same,fold change (FC),[18],4
same,fold change (FC),[19],4
same,fold change (FC),[20],0
CO[C@H]1/C=C/O[C@@]2(C)Oc3c(C)c(O)c4c(O)c(c(/C=N/N5CCN(Cc6cn(CCCCCCCCCCCCO[C@@H]7[C@@H](O[C@H]8O[C@H](CO)[C@@H](O)[C@H](N)[C@H]8O)[C@H](N)C[C@H](N)[C@H]7O[C@H]7O[C@H](CN)[C@@H](O)C[C@H]7N)nn6)CC5)c(O)c4c3C2=O)NC(=O)/C(C)=C\C=C\[C@H](C)[C@H](O)[C@@H](C)[C@@H](O)[C@@H](C)[C@H](OC(C)=O)[C@@H]1C.O=C(O)C(F)(F)F.O=C(O)C(F)(F)F.O=C(O)C(F)(F)F.O=C(O)C(F)(F)F.O=C(O)C(F)(F)F,MIC,[21],0.125 µg/mL
same,MIC,[22],128 µg/mL
same,MIC,[23],0.25 µg/mL
same,MIC,[24],1 µg/mL
same,fold change (FC),[25],4
same,fold change (FC),[26],4
same,fold change (FC),[27],4
same,fold change (FC),[28],4
same,fold change (FC),[29],4
same,fold change (FC),[30],4
same,fold change (FC),[31],4
